Reference: DBAASP
Converted amounts (≈) assume the structure as drawn.

How the values were obtained:
Assay in all cases: ≥ marks a high value that may be exact or a test limit, other limits are often not marked, values filed in µg/mL are converted to µM
[1] = test system: Bacillus subtilis ATCC 6633
[2] = test system: Staphylococcus aureus ATCC 6538
[3] = test system: Escherichia coli ATCC 8739
[4] = test system: Staphylococcus aureus ATCC 43300
Staphylococcus aureus = test system: Staphylococcus aureus
[5] = test system: Candida albicans F7-39/IDE99
[6] = test system: Staphylococcus epidermidis
Bacillus subtilis 168 = test system: Bacillus subtilis 168
Escherichia coli B = test system: Escherichia coli B
Pseudomonas aeruginosa = test system: Pseudomonas aeruginosa
[7] = test system: Pseudomonas aeruginosa ATCC 27853
[8] = test system: Micrococcus luteus CCM 144
[9] = test system: Candida albicans ATCC 90028
[10] = test system: Staphylococcus epidermidis ATCC 12228
Escherichia coli UB1005 = test system: Escherichia coli UB1005
[11] = test system: Salmonella enterica subsp. enterica serovar Pullorum C79-13
[12] = test system: Salmonella enterica subsp. enterica serovar Typhimurium ATCC 14028
[13] = test system: Enterococcus faecalis ATCC 29212
[14] = test system: Salmonella enterica subsp. enterica serovar Typhimurium C77-31
Escherichia coli BW25113 = test system: Escherichia coli BW25113
[15] = test system: Lactococcus lactis AS1.1690
[16] = test system: Enterococcus faecium CGMCC 1.2334
[17] = test system: Enterococcus faecalis CGMCC 1.595
[18] = test system: Staphylococcus aureus AS1.72
[19] = test system: Pseudomonas aeruginosa CGMCC 1.860
Escherichia coli AS1.349 = test system: Escherichia coli AS1.349
Bacillus cereus AS1.126 = test system: Bacillus cereus AS1.126

MIC [4]	MIC (Staphylococcus aureus)	MIC [5]	MIC (Bacillus subtilis 168)	MIC (Escherichia coli B)	MIC (Pseudomonas aeruginosa)	MIC [7]	MIC [8]	SMILES	further results
						4 µM (≈ 12.4 µg/mL)		CC[C@H](C)[C@H](NC(=O)[C@H](CCCCN)NC(=O)[C@H](CCCCN)NC(=O)[C@H](Cc1ccccc1)NC(=O)[C@H](CC(C)C)NC(=O)[C@H](CCCCN)NC(=O)[C@H](Cc1c[nH]c2ccccc12)NC(=O)[C@@H](N)CCCCN)C(=O)N[C@@H](CCCN=C(N)N)C(=O)N[C@@H](Cc1ccccc1)C(=O)NCC(=O)N[C@@H](CCCN=C(N)N)C(=O)N[C@@H](Cc1ccccc1)C(=O)N[C@@H](CC(C)C)C(=O)N[C@@H](CCCN=C(N)N)C(=O)N[C@@H](CCCCN)C(=O)N[C@H](C(=O)N[C@@H](CCCN=C(N)N)C(=O)N[C@@H](CCCN=C(N)N)C(=O)N[C@@H](Cc1ccccc1)C(=O)N[C@@H](CCCN=C(N)N)C(=O)N1CCC[C@H]1C(=O)N[C@@H](CCCCN)C(N)=O)[C@@H](C)CC [KWKLFKKIRFGRFLRKIRRFRPK]	MIC [10]: 4 µM (≈ 12.4 µg/mL); MIC (Escherichia coli UB1005): 2 µM (≈ 6.21 µg/mL); MIC [11]: 8 µM (≈ 24.8 µg/mL); MIC [12]: 4 µM (≈ 12.4 µg/mL); MIC [13]: 4 µM (≈ 12.4 µg/mL); MIC [14]: 4 µM (≈ 12.4 µg/mL)
	> 100 µM	≥ 100 µM	≥ 65 µM	≥ 100 µM	> 100 µM		≥ 100 µM	CC[C@H](C)[C@H](NC(=O)[C@H](C)NC(=O)CNC(=O)[C@H](CCCCN)NC(=O)[C@H](CC(N)=O)NC(=O)[C@@H](N)CC(C)C)C(=O)N[C@@H](CC(C)C)C(=O)N[C@@H](CCCCN)C(=O)N[C@@H](Cc1cnc[nH]1)C(=O)N[C@H](C(=O)N[C@H](C(=O)N[C@@H](CCCCN)C(N)=O)[C@@H](C)CC)[C@@H](C)CC [LNKGAILKHIIK]	

Further lines, the molecule ahead of its results:

SMILES	MIC [4]	MIC (Staphylococcus aureus)	MIC [5]	MIC (Bacillus subtilis 168)	MIC (Escherichia coli B)	MIC (Pseudomonas aeruginosa)	MIC [7]	MIC [8]	further results
CC[C@H](C)[C@H](NC(=O)CN)C(=O)N[C@@H](Cc1ccccc1)C(=O)N[C@@H](CO)C(=O)N[C@@H](CCCCN)C(=O)N[C@@H](Cc1ccccc1)C(=O)N[C@@H](C)C(=O)NCC(=O)N[C@@H](CCCCN)C(=O)NCC(=O)N[C@H](C(=O)N[C@@H](CCCCN)C(=O)N[C@@H](CC(N)=O)C(=O)N[C@@H](CC(C)C)C(=O)N[C@@H](CC(C)C)C(=O)N[C@H](C(=O)N[C@@H](CCCCN)C(=O)NCC(=O)N[C@H](C(=O)N[C@@H](CCCCN)C(=O)N[C@@H](CC(N)=O)C(=O)N[C@H](C(=O)NCC(=O)N[C@@H](CCCCN)C(=O)N[C@@H](CCC(=O)O)C(=O)N[C@H](C(=O)NCC(=O)N[C@@H](CCSC)C(=O)N[C@@H](CC(=O)O)C(=O)N[C@H](C(=O)N[C@H](C(=O)N[C@@H](CCCN=C(N)N)C(=O)N[C@H](C(=O)NCC(=O)N[C@H](C(=O)N[C@@H](CC(=O)O)C(=O)N[C@H](C(=O)N[C@@H](C)C(=O)NCC(=O)N[C@H]1CSSC[C@@H](C(=O)O)NC(=O)[C@H](CCC(=O)O)NC(=O)CNC(=O)[C@H](CCCCN)NC(=O)[C@H]([C@@H](C)CC)NC(=O)[C@H](CCCCN)NC1=O)[C@@H](C)CC)[C@@H](C)CC)[C@@H](C)O)[C@@H](C)CC)C(C)C)C(C)C)[C@@H](C)CC)C(C)C)C(C)C)[C@@H](C)CC [GIFSKFAGKGIKNLLVKGVKNIGKEVGMDVIRTGIDIAGCKIKGEC]	25 µM (≈ 120 µg/mL)								MIC [1]: 25 µM (≈ 120 µg/mL); MIC [2]: 3.1 µM (≈ 14.9 µg/mL); MIC [3]: 6.3 µM (≈ 30.3 µg/mL)
CC[C@H](C)[C@H](NC(=O)CN)C(=O)N[C@@H](CC(C)C)C(=O)N[C@@H](CO)C(=O)N[C@@H](CO)C(=O)N[C@@H](CC(C)C)C(=O)N[C@@H](Cc1c[nH]c2ccccc12)C(=O)N[C@@H](CCCCN)C(=O)N[C@@H](CCCCN)C(=O)N1CCC[C@H]1C(=O)N[C@@H](CCCCN)C(=O)N[C@@H](CCCCN)C(=O)N[C@H](C(=O)N[C@H](C(=O)N[C@@H](C)C(=O)N[C@@H](CCCCN)C(N)=O)[C@@H](C)CC)[C@@H](C)CC [GILSSLWKKPKKIIAK]	> 100 µM	> 100 µM	≥ 100 µM	≥ 49 µM	≥ 100 µM	> 100 µM	98 µM (≈ 177 µg/mL)	5.8 µM (≈ 10.5 µg/mL)	MIC [6]: ≥ 100 µM
CC[C@H](C)[C@H](NC(=O)CN)C(=O)N[C@@H](CC(C)C)C(=O)N[C@@H](CO)C(=O)N[C@H](C(=O)N[C@H](C(=O)N[C@@H](Cc1ccccc1)C(=O)N[C@@H](CCCCN)C(=O)N[C@@H](C)C(=O)NCC(=O)N[C@@H](CCCCN)C(=O)NCC(=O)N[C@H](C(=O)N[C@H](C(=O)N[C@H]1CSSC[C@@H](C(=O)O)NC(=O)[C@H](CC(C)C)NC(=O)CNC(=O)[C@H](CO)NC(=O)[C@H](CC(C)C)NC(=O)CNC1=O)C(C)C)[C@@H](C)CC)C(C)C)[C@@H](C)O [GILSTVFKAGKGIVCGLSGLC]	25 µM (≈ 50.5 µg/mL)								MIC [1]: 12.5 µM (≈ 25.3 µg/mL); MIC [2]: 3.1 µM (≈ 6.27 µg/mL); MIC [3]: ≥ 50 µM; MIC [9]: ≥ 100 µM
CC[C@H](C)[C@H](NC(=O)CN)C(=O)N[C@@H](CCSC)C(=O)N[C@@H](CO)C(=O)N[C@@H](CO)C(=O)N[C@@H](CC(C)C)C(=O)N[C@@H](CCSC)C(=O)N[C@@H](CCCCN)C(=O)N[C@@H](CCCCN)C(=O)N[C@@H](CC(C)C)C(=O)N[C@@H](C)C(=O)N[C@@H](C)C(=O)N[C@H](C(=O)N[C@H](C(=O)N[C@@H](C)C(=O)N[C@@H](CCCCN)C(N)=O)[C@@H](C)CC)[C@@H](C)CC [GIMSSLMKKLAAIIAK]	7.2 µM (≈ 12.1 µg/mL)	10 µM (≈ 16.7 µg/mL)	8.4 µM (≈ 14.1 µg/mL)	7 µM (≈ 11.7 µg/mL)	3.6 µM (≈ 6.03 µg/mL)	17 µM (≈ 28.5 µg/mL)	8 µM (≈ 13.4 µg/mL)	3 µM (≈ 5.02 µg/mL)	MIC [6]: 5 µM (≈ 8.37 µg/mL)
CC[C@H](C)[C@H](NC(=O)[C@H](CC(C)C)NC(=O)[C@H](CCCCN)NC(=O)[C@@H](NC(=O)[C@@H](NC(=O)[C@H](CCCCN)NC(=O)[C@@H]1CCCN1C(=O)[C@H](CC(C)C)NC(=O)[C@@H](NC(=O)[C@H](CCCCN)NC(=O)[C@H](C)NC(=O)[C@H](CC(C)C)NC(=O)[C@H](CC(C)C)NC(=O)[C@H](CO)NC(=O)[C@H](C)NC(=O)[C@H](CCSC)NC(=O)CN)C(C)C)C(C)C)C(C)C)C(=O)N[C@@H](CCCCN)C(=O)O [GMASLLAKVLPKVVKLIK]		3.5 µM (≈ 6.68 µg/mL)	12.1 µM (≈ 23.1 µg/mL)	3.4 µM (≈ 6.49 µg/mL)	1.8 µM (≈ 3.44 µg/mL)	47.5 µM (≈ 90.7 µg/mL)		1.2 µM (≈ 2.29 µg/mL)	
CC[C@H](C)[C@H](NC(=O)[C@@H]1CCCN1C(=O)[C@@H]1CCCN1C(=O)[C@H](CCCN=C(N)N)NC(=O)[C@H](CCCN=C(N)N)NC(=O)[C@H](Cc1c[nH]c2ccccc12)NC(=O)[C@@H]1CCCN1C(=O)[C@@H]1CCCN1C(=O)[C@H](CCCN=C(N)N)NC(=O)[C@H](Cc1ccccc1)NC(=O)[C@@H](N)CCCN=C(N)N)C(=O)N[C@@H](CCCN=C(N)N)C(=O)N1CCC[C@H]1C(=O)N1CCC[C@H]1C(=O)N[C@@H](Cc1ccccc1)C(=O)N[C@@H](Cc1ccc(O)cc1)C(=O)N1CCC[C@H]1C(=O)O [RFRPPWRRPPIRPPFYP]									MIC (Escherichia coli BW25113): 8 µM (≈ 17.9 µg/mL)
CC(C)[C@H](N)C(=O)N[C@@H](Cc1c[nH]c2ccccc12)C(=O)N[C@@H](CCCN=C(N)N)C(=O)N[C@@H](Cc1cnc[nH]1)C(=O)N[C@@H](Cc1c[nH]c2ccccc12)C(=O)O [VWRHW]									MIC [15]: ≥ 100 µM; MIC [16]: ≥ 100 µM; MIC [17]: ≥ 100 µM; MIC [18]: ≥ 100 µM; MIC [19]: ≥ 100 µM; MIC (Escherichia coli AS1.349): ≥ 100 µM; MIC (Bacillus cereus AS1.126): ≥ 100 µM
